Tested on: tumor cells and immune cells
Assay: Cell-biological experiments on blocking of polarization of tumor cells and immune cells
Format: cell-based
Conditions: general statement
Source text: By means of a method of simultaneously detecting a number of cell surface proteins, it has been established that aminopeptidases will control cell surface proteins which are not part of the class of proteolytic enzymes, but belong to the class of the adhesion molecules, which adhesion molecules—in a certain combination and geometric array—will be decisive for the polarization of the cells. Consequently, aminopeptidases appear to be superordinate control proteins in a protein network consisting of up to 30 different cell surface protein species which—through specific interaction with one another—will control polarization of tumor cells and other invasive cells such as immune cells and which are listed above. The inhibition of at least one aminopeptidase will lead to a reproducible modification of surface protein combinations on the cell surface which will always also involve a modification of CD13. […] The term polarization as used here shall denote a process in which a primarily spherical cell will transition into an oblong, elongated cell shape, via various intermediate states. This process which constitutes a change of shape controlled by the complex protein network is the prerequisite for cell migration, since only cells of oblong shape are capable of migrating. The polarization process therefore needs to precede all cell migration processes, including invasion. […]

CCCCC[C@H](CC(=O)NO)C(=O)N[C@H](C(=O)N1CCC[C@H]1CO)C(C)C [actinonin]
effectiveness as aminopeptidase inhibitor blocking polarization: particularly effective
